Reference: the NIST ThermoML archive (doi:10.1021/je800026p)
Numbers after ± are expanded uncertainties.

Details: 101.33 kPa, Liquid; for speed of sound: Sing-around technique in a fixed-path interferometer; for mass density: Vibrating tube method

CCCCN [1-butanamine]
speed of sound (288.15 K): 1296.1 ± 2.2 m/s
mass density (288.15 K): 742.865 ± 0.58 kg/m3
speed of sound (293.15 K): 1273.6 ± 2.2 m/s
mass density (293.15 K): 738.096 ± 0.58 kg/m3
speed of sound (298.15 K): 1250 ± 2.2 m/s
mass density (298.15 K): 733.301 ± 0.57 kg/m3
speed of sound (303.15 K): 1228.9 ± 2.2 m/s
mass density (303.15 K): 728.477 ± 0.57 kg/m3
speed of sound (308.15 K): 1205.7 ± 2.2 m/s
mass density (308.15 K): 723.625 ± 0.56 kg/m3

CCCCNCCCC [dibutylamine]
speed of sound (288.15 K): 1289.2 ± 2.2 m/s
mass density (288.15 K): 766.115 ± 2.1 kg/m3
speed of sound (293.15 K): 1269.5 ± 2.2 m/s
mass density (293.15 K): 762.022 ± 2.1 kg/m3
speed of sound (298.15 K): 1246.7 ± 2.2 m/s
mass density (298.15 K): 757.784 ± 2.1 kg/m3
speed of sound (303.15 K): 1226.7 ± 2.2 m/s
mass density (303.15 K): 752.284 ± 2 kg/m3
speed of sound (308.15 K): 1207 ± 2.2 m/s
mass density (308.15 K): 748.17 ± 2 kg/m3

CCCCN(CCCC)CCCC [tributylamine]
speed of sound (288.15 K): 1285 ± 2.2 m/s
mass density (288.15 K): 781.336 ± 0.61 kg/m3
speed of sound (293.15 K): 1266.4 ± 2.2 m/s
mass density (293.15 K): 777.632 ± 0.61 kg/m3
speed of sound (298.15 K): 1247.6 ± 2.2 m/s
mass density (298.15 K): 773.913 ± 0.6 kg/m3
speed of sound (303.15 K): 1229 ± 2.2 m/s
mass density (303.15 K): 770.183 ± 0.6 kg/m3
speed of sound (308.15 K): 1210.4 ± 2.2 m/s
mass density (308.15 K): 766.44 ± 0.6 kg/m3

CCCCCCOCCOCCO [2-(2-hexyloxyethoxy)ethanol]
speed of sound (288.15 K): 1405.2 ± 2.2 m/s
mass density (288.15 K): 936.901 ± 0.77 kg/m3
speed of sound (293.15 K): 1388.1 ± 2.2 m/s
mass density (293.15 K): 932.917 ± 0.76 kg/m3
speed of sound (298.15 K): 1371.1 ± 2.2 m/s
mass density (298.15 K): 928.926 ± 0.76 kg/m3
speed of sound (303.15 K): 1354.3 ± 2.2 m/s
mass density (303.15 K): 924.931 ± 0.75 kg/m3
speed of sound (308.15 K): 1337.7 ± 2.2 m/s
mass density (308.15 K): 920.933 ± 0.75 kg/m3
